Where “and” joins values, the source holds several entries; their conditions need not be identical. Identical values can stand only once.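 Where inhibition never reached the appropriate level, the endpoint shown equals the highest concentration tested. Otherwise, values were interpolated linearly from a five-concentration, 48-hour dose response in 96-well plates. GI50 marks 50% less growth. Definition used: TGI = concentration required for complete inhibition of growth.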
Assays:
Test in all cases: growth of human tumour cells (NCI), 48 h
[1] = test system: U251 CNS
[2] = test system: DU-145 prostate
[3] = test system: NCI/ADR-RES ovarian
[4] = test system: SK-MEL-28 melanoma
[5] = test system: EKVX NSCLC
[6] = test system: RPMI-8226 leukemia
[7] = test system: MDA-MB-231 breast
[8] = test system: SW-620 colon
[9] = test system: ACHN renal
[10] = test system: SK-MEL-5 melanoma

Row | Structure (SMILES) | GI50 [1] | TGI [1] | GI50 [2] | TGI [2] [µM] | GI50 [3] | TGI [3] | GI50 [4] | TGI [4] | GI50 [5] | TGI [5] [µM] | GI50 [6] | TGI [6] | GI50 [7] | TGI [7] | GI50 [8] | TGI [8] | GI50 [9] | TGI [9] [µM] | GI50 [10] [µM] | TGI [10] [µM]
1 | Cc1cc2[nH]c(=O)c3c4ccccc4cn3c2cc1C | 4.03 µM | 14.2 µM | 13.9 µM | 30.1 | 13.6 µM | 31.7 µM | 14.8 µM | 35.1 µM | 13.6 µM | 31.9 | 6.75 µM | 29.8 µM | 8.34 µM | 23.7 µM | 3.83 µM | 33.2 µM | 10.2 µM | 23.5 | 13.6 | 29.6
2 | CCCCCCCCCCC(C(O)c1ccccc1)N1CCCCC1 (stereo not drawn) | 1.74 µM | 3.46 µM | 2.07 µM | 6.72 | 2.99 µM | 10.7 µM | 1.83 µM | 3.32 µM | 2.09 µM | 6.08 | 1.9 µM | 4.34 µM | 1.76 µM | 3.69 µM | 1.7 µM | 3.21 µM | 2.19 µM | 4.95 | 1.69 | 3.06
3 | CN(C)CCCN1c2ccccc2C(C)(C)c2ccccc21 | – | 24.9 µM | – | 31.2 | – | 31.8 µM | – | 31.4 µM | – | 32.6 | – | 28.5 µM | – | 27.8 µM | – | 52.4 µM | – | 28.6 | – | 26.2
4 | Clc1ccc2nnnn2n1 | 3.97 µM | 22.7 µM | 2.31 µM | 6.41 | 5.61 µM | > 100 µM | 12.3 µM | 63 µM | 18 µM | 62.3 | 3.54 µM | 28 µM | 2.64 µM | 7.01 µM | 3.88 µM | 22 µM | 5.27 µM | 19.5 | 2.24 | 6.19
5 | C=C(C)[C@@H]1CC[C@]2(C)[C@H](CC=C3[C@@H]4[C@@H](C)[C@H](C)CC[C@]4(C(N)=O)CC[C@]32C)[C@@]1(C)CCC#N | 4.32 µM | 18.3 µM | 4.41 µM | 26.4 | 4 µM | 17.2 µM | 7.57 µM | 22.7 µM | 5.22 µM | > 100 | 2.18 µM | 6.27 µM | 8.75 µM | 42.8 µM | 4.5 µM | > 100 µM | 3.37 µM | > 100 | 2.71 | 8.16
6 | COc1cc(-n2cc(-c3ccc(Cl)cc3)nc2SCc2cccc(C#N)c2)cc(OC)c1OC | 44.1 µM | > 100 µM | 48.1 µM | > 100 | 94.7 µM | > 100 µM | 31.2 µM | > 100 µM | 18.2 µM | 56.9 | > 100 µM | > 100 µM | 73.5 µM | > 100 µM | 91.5 µM | > 100 µM | 37.6 µM | > 100 | 34.8 | > 100
7 | COc1ccc(/C=C(\C#N)n2nnc3ccccc32)cc1 | 0.414 µM | > 32.6 µM | 0.323 µM | – | 0.0604 µM | 28.2 µM | 1.65 µM | > 86.9 µM | 0.431 µM | > 100 | 0.385 µM | 24.6 µM | 0.525 µM | 3.47 µM | 0.0603 µM | > 100 µM | 0.434 µM | 17.2 | 0.282 | 2.89
8 | O=C1C2C(c3ccccc3)NC(c3ccccc3)C1C(c1ccccc1)NC2c1ccccc1 (stereo not drawn) | – | > 100 µM | – | > 100 | – | > 100 µM | – | > 100 µM | – | > 100 | – | > 100 µM | – | > 100 µM | – | > 100 µM | – | > 100 | – | > 100
9 | C=C1C(=O)O[C@H]2[C@H](OC(C)=O)[C@@H](C)CCC/C(C)=C/CC[C@@]3(C)O[C@@H]3C[C@@H]12 | – | 21.7 µM | – | 6.87 | – | 4 µM | – | 11.1 µM | – | 8.79 | – | 6.5 µM | – | 10.6 µM | – | > 23.1 µM | – | 3.4 | – | 15.5
10 | Cc1ccc2nc(-c3ccccc3)c(N=O)n2c1 | – | > 100 µM | – | > 100 | – | > 100 µM | – | > 100 µM | – | 79.5 | – | > 100 µM | – | 73.1 µM | – | > 100 µM | – | > 100 | – | > 100
11 | Oc1ccccc1C=Nc1nc(SCc2ccccc2)nc2[nH]ncc12 | 46.4 µM | > 100 µM | > 100 µM | > 100 | 43.8 µM | > 100 µM | 82.8 µM | > 100 µM | > 100 µM | > 100 | 30.8 µM | > 100 µM | 29.2 µM | > 100 µM | 40 µM | > 100 µM | 41.7 µM | > 100 | 11.9 | 26.3
12 | CCN(CC)CCn1c2ccccc2c(=O)c2c(O)ccc(O)c21 | – | 74.1 µM | – | > 100 | – | 44 µM | – | 48.6 µM | – | > 46.4 | – | 85.4 µM | – | 29.9 µM | – | 31.5 µM | – | 57.8 | – | 45.5
13 | COc1cc2c(cc1OCCCCCOc1ccc(-n3c(C)nc4ccccc4c3=O)cc1)N=C[C@@H]1CCCN1C2=O | 0.231 µM | 0.759 µM | 0.41 µM | 3.74 | 1.96 µM | 6.31 µM | 0.27 µM | 0.853 µM | 0.778 µM | 4.77 | 0.204 µM | 0.545 µM | 0.188 µM | 0.636 µM | 0.323 µM | 2.8 µM | 0.342 µM | 1.53 | 0.176 | 0.353
14 | O=C(O)C1C(C(=O)O)C23CC2(C(=O)O)C2(C(=O)O)CCC3=C3CCCC312 (stereo not drawn) | – | 23.8 µM | – | 34.1 | – | > 100 µM | – | 29.9 µM | – | 54.3 | – | 37.9 µM | – | 41 µM | – | > 100 µM | – | 59.2 | – | 18.2
15 | CC1(O)CC(c2nc(-c3ccc4ccc(-c5ccccc5)nc4c3)c3c(N)nccn23)C1 (stereo not drawn) | 13.4 µM and > 10 µM | 36.3 µM and > 10 µM | 7.4 µM and 8.12 µM | > 86.8 | 10.6 µM and > 10 µM | 96.9 µM and > 10 µM | 12 µM and > 10 µM | 44.3 µM and > 10 µM | 11.7 µM and > 10 µM | > 100 | 6.55 µM and 3.98 µM | 31.9 µM and > 10 µM | 6.97 µM and 5.12 µM | 38.1 µM and > 10 µM | 4.87 µM and 2.36 µM | 34.8 µM and > 10 µM | 7.44 µM and 7.79 µM | > 100 | 3.38 | 14.9
16 | COc1ccc(NC(=O)COCCOCCNC[C@@H]2C(=O)O[C@H]3[C@H]2CC/C(COC(=O)OC/C2=C/CC[C@@]4(C)O[C@H]4[C@H]4OC(=O)[C@@H](CN(C)C)[C@@H]4CC2)=C\CC[C@@]2(C)O[C@@H]32)c(O)c1C(N)=O | 8.87 µM | 18 µM | 7.21 µM | 13.7 | > 50 µM | > 50 µM | 2.79 µM | 9.57 µM | 5.76 µM | 14.7 | 1.42 µM | 4.21 µM | 5.03 µM | 11.3 µM | 1.14 µM | 2.87 µM | 0.987 µM | 2.21 | 8.79 | 17.3
17 | O=C1C=CC[C@H](/C=C/c2ccccc2)O1 | 1.88 µM | 13.1 µM | 2.82 µM | 9.07 | 3.12 µM | > 23.2 µM | 2.76 µM | 15.3 µM | 6.48 µM | > 50.1 | 0.742 µM | – | 5.42 µM | 32.4 µM | 1.39 µM | 16 µM | 4.04 µM | 16.6 | 3.39 | 16.6
